Test results taken from BindingDB's records for doi:10.1021/jm049496b (University of Colorado, 2004).

Columns and labels:
[1] = target: T1, 7-dehydrocholesterol reductase (Homo sapiens, UniProt Q9UBM7); assay: Growth inhibition of MCF7 cells expressing ER and antiestrogen binding sites
T1 sequence (Q9UBM7 whole entry): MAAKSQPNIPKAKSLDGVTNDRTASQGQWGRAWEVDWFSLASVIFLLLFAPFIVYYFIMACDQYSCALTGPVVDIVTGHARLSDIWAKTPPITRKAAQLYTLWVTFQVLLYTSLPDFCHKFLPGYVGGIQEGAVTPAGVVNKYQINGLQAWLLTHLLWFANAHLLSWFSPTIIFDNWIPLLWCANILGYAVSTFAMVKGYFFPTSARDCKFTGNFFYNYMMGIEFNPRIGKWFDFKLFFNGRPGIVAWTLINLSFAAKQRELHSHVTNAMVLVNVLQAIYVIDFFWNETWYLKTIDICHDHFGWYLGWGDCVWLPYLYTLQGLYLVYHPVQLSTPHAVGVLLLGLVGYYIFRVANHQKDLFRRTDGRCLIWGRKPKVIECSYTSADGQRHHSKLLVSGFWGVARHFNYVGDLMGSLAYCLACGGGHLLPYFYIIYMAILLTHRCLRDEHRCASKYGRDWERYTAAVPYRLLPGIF

[2] = target: T1, 7-dehydrocholesterol reductase; assay: Growth inhibition of multidrug resistant MCF7/Adr cells containing antiestrogen binding sites
[3] = target: T1, 7-dehydrocholesterol reductase; assay: Growth inhibition of MDA-MB-231 cells containing antiestrogen binding sites
[4] = target: T1, 7-dehydrocholesterol reductase; assay: Growth inhibition of MDA-MB-435 cells containing antiestrogen binding sites

| Structure (SMILES) | IC50 [1] [nM] | IC50 [2] [nM] | IC50 [3] [nM] | IC50 [4] [nM] |
| --- | --- | --- | --- | --- |
| COc1cccc2c1C(=O)c1c(O)c3c(c(O)c1C2=O)C[C@@](O)(C(=O)CO)C[C@@H]3O[C@H]1C[C@H](NCNC(=O)c2ccccc2O)[C@H](O)[C@H](C)O1 | 70 | 2000 | 80 | 50 |
| CC/C(=C(/c1ccc(O)cc1)c1ccc(OCCN(C)CCOCCOCCO/N=C/c2ccc(O)c(C(=O)NCN[C@H]3C[C@H](O[C@H]4C[C@](O)(C(=O)CO)Cc5c(O)c6c(c(O)c54)C(=O)c4c(OC)cccc4C6=O)O[C@@H](C)[C@H]3O)c2)cc1)c1ccccc1 | 30 | 60 | 30 | 40 |
